This passage reports MIC, HC5 and hemolysis results from ChEMBL document CHEMBL5506059, “Cyanomethylquinolones as a New Class of Potential Multitargeting Broad-Spectrum Antibacterial Agents” (J Med Chem, 2024).

A word on the MIC: it is the smallest concentration in the dilution series that meets the test's criterion for growth inhibition.

Converted amounts (≈) assume the structure as drawn.

The subject of data set [1] is Staphylococcus aureus. The data set is described as follows: Antibacterial activity against methicillin resistant Staphylococcus aureus clinical isolate assessed as inhibition of bacterial growth incubated for 24 hrs. The data set is classed as functional.
The subject of data set [2] is Staphylococcus aureus. The data set is described as follows: Antibacterial activity against Staphylococcus aureus clinical isolate assessed as inhibition of bacterial growth incubated for 24 hrs. The format is functional.
Data set [3] deals with Staphylococcus aureus. As to the kind of experiment: Antibacterial activity against Staphylococcus aureus ATCC 25923 assessed as inhibition of bacterial growth incubated for 24 hrs. The data set is classed as functional.
For data set [4], the system named is Staphylococcus aureus. As to the kind of experiment: Antibacterial activity against Staphylococcus aureus ATCC 29213 assessed as inhibition of bacterial growth incubated for 24 hrs. The data set is classed as functional.
Data set [5] concerns Enterococcus faecalis. The data set is described as follows: Antibacterial activity against Enterococcus faecalis clinical isolate assessed as inhibition of bacterial growth incubated for 24 hrs. The format is functional.
In a further data set the test system is Klebsiella pneumoniae. The data set is described as follows: Antibacterial activity against Klebsiella pneumoniae clinical isolate assessed as inhibition of bacterial growth incubated for 24 hrs. The data set is classed as functional.
Data set [6] has as its system Escherichia coli. As to the kind of experiment: Antibacterial activity against Escherichia coli clinical isolate assessed as inhibition of bacterial growth incubated for 24 hrs. The data set is classed as functional.
Data set [7] concerns Escherichia coli. The data set is described as follows: Antibacterial activity against Escherichia coli ATCC 25922 assessed as inhibition of bacterial growth incubated for 24 hrs. The data set is classed as functional.
Data set [8] concerns Pseudomonas aeruginosa. As to the kind of experiment: Antibacterial activity against Pseudomonas aeruginosa clinical isolate assessed as inhibition of bacterial growth incubated for 24 hrs. The data set is classed as functional.
In data set [9] the test system is Pseudomonas aeruginosa. The data set is described as follows: Antibacterial activity against Pseudomonas aeruginosa ATCC 27853 assessed as inhibition of bacterial growth incubated for 24 hrs. The format is functional.
Another data set has as its system Acinetobacter baumannii. As to the kind of experiment: Antibacterial activity against Acinetobacter baumannii clinical isolate assessed as inhibition of bacterial growth incubated for 24 hrs. The format is functional.
In a further data set the test system is Streptococcus pneumoniae. As to the kind of experiment: Antibacterial activity against Streptococcus pneumoniae ATCC 6305 assessed as inhibition of bacterial growth incubated for 24 hrs. The data set is classed as functional.
The subject of a further data set is Streptococcus pyogenes. The data set is described as follows: Antibacterial activity against Streptococcus pyogenes ATCC 19615 assessed as inhibition of bacterial growth incubated for 24 hrs. The format is functional.
In data set [10] the test system is Staphylococcus epidermidis. The data set is described as follows: Antibacterial activity against Staphylococcus epidermidis ATCC 12228 assessed as inhibition of bacterial growth incubated for 24 hrs. The format is functional.
In data set [11] the test system is Staphylococcus aureus. The data set is described as follows: Antibacterial activity against methicillin-resistant Staphylococcus aureus ATCC 43300 assessed as inhibition of bacterial growth incubated for 24 hrs. The data set is classed as functional.
Data set [12] has as its system Staphylococcus aureus. The data set is described as follows: Antibacterial activity against Staphylococcus aureus ATCC 12600 assessed as inhibition of bacterial growth incubated for 24 hrs. The format is functional.
Data set [13] deals with Staphylococcus aureus. As to the kind of experiment: Antibacterial activity against Staphylococcus aureus ATCC 6538 assessed as inhibition of bacterial growth incubated for 24 hrs. The data set is classed as functional.
For data set [14], the system named is Staphylococcus aureus. As to the kind of experiment: Antibacterial activity against Staphylococcus aureus CMCC(B)26003 assessed as inhibition of bacterial growth incubated for 24 hrs. The data set is classed as functional.
Data set [15] has as its system Staphylococcus aureus. The data set is described as follows: Antibacterial activity against Staphylococcus aureus CMCC(B)26001 assessed as inhibition of bacterial growth incubated for 24 hrs. The data set is classed as functional.
The subject of another data set is Enterococcus faecium. As to the kind of experiment: Antibacterial activity against Enterococcus faecium ATCC 19434 assessed as inhibition of bacterial growth incubated for 24 hrs. The format is functional.
Data set [16] has as its system Enterococcus faecalis. The data set is described as follows: Antibacterial activity against vancomycin-resistant Enterococcus faecalis clinical isolate p1-2007226001 assessed as inhibition of bacterial growth incubated for 24 hrs. The data set is classed as functional.
Data set [17] has as its system Enterococcus faecalis. As to the kind of experiment: Antibacterial activity against vancomycin-resistant Enterococcus faecalis clinical isolate p1-2007225053 assessed as inhibition of bacterial growth incubated for 24 hrs. The format is functional.
The subject of another data set is Erythrocyte. As to the kind of experiment: Hemolytic activity in human Red blood cells assessed as concentration required for 5% hemolysis measured after 1.5 hrs by absorbance based assay. The format is toxicity, cell-based.
A short description of data set [18]: Hemolytic activity in human Red blood cells at 256 ug/ml measured after 1.5 hrs by absorbance based assay relative to control. The format is toxicity, cell-based, Erythrocyte. Conditions: red blood cells (erythrocytes), at 256 µg/mL, read-out: Activity.

In the case of `CCCCCCCCn1cc(C(=O)O)c(=O)c2cc(F)c(CC#N)cc21`, the minimum inhibitory concentration (MIC) came to 256 µg/mL (≈ 714 µM) in the data set on Staphylococcus aureus [1]; 256 µg/mL (≈ 714 µM) in the data set with Staphylococcus aureus [2]; 1 µg/mL (≈ 2.79 µM) in the data set with Staphylococcus aureus [3]; 256 µg/mL (≈ 714 µM) in the data set with Staphylococcus aureus [4]; 256 µg/mL (≈ 714 µM) with Enterococcus faecalis [5]; 256 µg/mL (≈ 714 µM) with Klebsiella pneumoniae. The MIC turned out to be 0.5 µg/mL (≈ 1.4 µM) with Escherichia coli [6]; 256 µg/mL (≈ 714 µM) in the data set with Escherichia coli [7]; 2 µg/mL (≈ 5.58 µM) in the data set on Pseudomonas aeruginosa [8]; 256 µg/mL (≈ 714 µM) in the data set with Pseudomonas aeruginosa [9]; 256 µg/mL (≈ 714 µM) in the data set with Acinetobacter baumannii; 64 µg/mL (≈ 179 µM) in the data set on Streptococcus pneumoniae. In addition, the minimum inhibitory concentration (MIC) stood at 2 µg/mL (≈ 5.58 µM) with Streptococcus pyogenes; 128 µg/mL (≈ 357 µM) in [10]; 64 µg/mL (≈ 179 µM) in the data set with Staphylococcus aureus [11]; 32 µg/mL (≈ 89.3 µM) in the data set on Staphylococcus aureus [12]; 64 µg/mL (≈ 179 µM) in the data set on Staphylococcus aureus [13]; 2 µg/mL (≈ 5.58 µM) in the data set on Staphylococcus aureus [14]. In addition, the MIC in the data set on Staphylococcus aureus [15] was found to be 2 µg/mL (≈ 5.58 µM); in the data set on Enterococcus faecium it was 128 µg/mL (≈ 357 µM); in the data set with Enterococcus faecalis [16], 128 µg/mL (≈ 357 µM); in the data set on Enterococcus faecalis [17], 256 µg/mL (≈ 714 µM). Also, the HC5 in the data set on Erythrocyte came to 258 µg/mL.

As to `CCn1cc(C(=O)O)c(=O)c2cc(F)c(CC#N)cc21`, the MIC with Staphylococcus aureus [1] was found to be 1 µg/mL (≈ 3.65 µM); with Staphylococcus aureus [2], 1 µg/mL (≈ 3.65 µM); in the data set on Staphylococcus aureus [3], 0.25 µg/mL (≈ 0.912 µM); with Staphylococcus aureus [4], 4 µg/mL (≈ 14.6 µM); in the data set with Enterococcus faecalis [5] it was 32 µg/mL (≈ 117 µM); with Klebsiella pneumoniae, 2 µg/mL (≈ 7.29 µM). Further, the minimum inhibitory concentration (MIC) was found to be 4 µg/mL (≈ 14.6 µM) in the data set on Escherichia coli [6]; 2 µg/mL (≈ 7.29 µM) in the data set with Escherichia coli [7]; 0.5 µg/mL (≈ 1.82 µM) in the data set on Pseudomonas aeruginosa [8]; 0.25 µg/mL (≈ 0.912 µM) in the data set with Pseudomonas aeruginosa [9]; 0.5 µg/mL (≈ 1.82 µM) with Acinetobacter baumannii; 32 µg/mL (≈ 117 µM) in the data set on Streptococcus pneumoniae. Besides, the MIC in the data set on Streptococcus pyogenes was determined as 1 µg/mL (≈ 3.65 µM); in data set [10], 256 µg/mL (≈ 933 µM); with Staphylococcus aureus [11], 128 µg/mL (≈ 467 µM); in the data set on Staphylococcus aureus [12] it was 64 µg/mL (≈ 233 µM); in the data set on Staphylococcus aureus [13], 2 µg/mL (≈ 7.29 µM); in the data set with Staphylococcus aureus [14] it was 4 µg/mL (≈ 14.6 µM). The MIC turned out to be 4 µg/mL (≈ 14.6 µM) in the data set on Staphylococcus aureus [15], 256 µg/mL (≈ 933 µM) with Enterococcus faecium, 128 µg/mL (≈ 467 µM) in the data set on Enterococcus faecalis [16] and 128 µg/mL (≈ 467 µM) in the data set with Enterococcus faecalis [17]. Further, in the data set on Erythrocyte, the HC5 was greater than 10000 µg/mL. In data set [18], the hemolysis at 1.5 h, 256 ug/ml is less than 1%.

In the case of `Cn1cc(C(=O)O)c(=O)c2cc(F)c(CC#N)cc21`, the MIC in the data set with Staphylococcus aureus [1] was 2 µg/mL (≈ 7.69 µM); with Staphylococcus aureus [2] it was 1 µg/mL (≈ 3.84 µM); with Staphylococcus aureus [3], 1 µg/mL (≈ 3.84 µM); with Staphylococcus aureus [4], 8 µg/mL (≈ 30.7 µM); with Enterococcus faecalis [5] it was 4 µg/mL (≈ 15.4 µM); with Klebsiella pneumoniae, 0.5 µg/mL (≈ 1.92 µM). The MIC is 16 µg/mL (≈ 61.5 µM) in the data set on Escherichia coli [6]; 1 µg/mL (≈ 3.84 µM) in the data set on Escherichia coli [7]; 0.5 µg/mL (≈ 1.92 µM) in the data set with Pseudomonas aeruginosa [8]; 2 µg/mL (≈ 7.69 µM) with Pseudomonas aeruginosa [9]; 4 µg/mL (≈ 15.4 µM) in the data set on Acinetobacter baumannii.

`N#CCc1cc2c(cc1F)c(=O)c(C(=O)O)cn2CC1CCCCC1`: the MIC in the data set with Staphylococcus aureus [1], in the data set on Staphylococcus aureus [2], in the data set on Staphylococcus aureus [3], with Staphylococcus aureus [4], with Enterococcus faecalis [5] and in the data set with Klebsiella pneumoniae was 256 µg/mL (≈ 748 µM) throughout. In addition, the minimum inhibitory concentration (MIC) came out at 256 µg/mL (≈ 748 µM) in the data set on Escherichia coli [6]; 256 µg/mL (≈ 748 µM) in the data set with Escherichia coli [7]; 16 µg/mL (≈ 46.7 µM) in the data set with Pseudomonas aeruginosa [8]; 256 µg/mL (≈ 748 µM) in the data set with Pseudomonas aeruginosa [9]; 256 µg/mL (≈ 748 µM) in the data set with Acinetobacter baumannii.

As for `Cc1ccc(Cn2cc(C(=O)O)c(=O)c3cc(F)c(CC#N)cc32)cc1`, the MIC with Staphylococcus aureus [1] is 8 µg/mL (≈ 22.8 µM); with Staphylococcus aureus [2], 256 µg/mL (≈ 731 µM); in the data set on Staphylococcus aureus [3] it was 0.25 µg/mL (≈ 0.714 µM); with Staphylococcus aureus [4], 256 µg/mL (≈ 731 µM); in the data set on Enterococcus faecalis [5], 4 µg/mL (≈ 11.4 µM); in the data set on Klebsiella pneumoniae, 256 µg/mL (≈ 731 µM). For the same molecule, the MIC in the data set with Escherichia coli [6] turned out to be 256 µg/mL (≈ 731 µM); in the data set on Escherichia coli [7], 0.25 µg/mL (≈ 0.714 µM); in the data set on Pseudomonas aeruginosa [8], 0.5 µg/mL (≈ 1.43 µM); with Pseudomonas aeruginosa [9] it was 4 µg/mL (≈ 11.4 µM); in the data set with Acinetobacter baumannii, 256 µg/mL (≈ 731 µM).

Take `N#CCc1cc2c(cc1F)c(=O)c(C(=O)O)cn2Cc1ccc(Cl)cc1Cl`: the MIC with Staphylococcus aureus [1] is 256 µg/mL (≈ 632 µM); in the data set on Staphylococcus aureus [2], 256 µg/mL (≈ 632 µM); in the data set with Staphylococcus aureus [3], 0.5 µg/mL (≈ 1.23 µM); in the data set with Staphylococcus aureus [4] it was 2 µg/mL (≈ 4.94 µM); in the data set on Enterococcus faecalis [5], 256 µg/mL (≈ 632 µM); in the data set with Klebsiella pneumoniae, 16 µg/mL (≈ 39.5 µM). For the same molecule, the MIC came to 1 µg/mL (≈ 2.47 µM) in the data set on Escherichia coli [6]; 1 µg/mL (≈ 2.47 µM) in the data set on Escherichia coli [7]; 0.5 µg/mL (≈ 1.23 µM) in the data set on Pseudomonas aeruginosa [8]; 32 µg/mL (≈ 79 µM) with Pseudomonas aeruginosa [9]; 8 µg/mL (≈ 19.7 µM) with Acinetobacter baumannii.

In the case of `N#CCc1cc2c(cc1F)c(=O)c(C(=O)O)cn2Cc1cccc(Cl)c1`, the MIC in the data set with Staphylococcus aureus [1] amounted to 256 µg/mL (≈ 690 µM); in the data set with Staphylococcus aureus [2], 256 µg/mL (≈ 690 µM); in the data set with Staphylococcus aureus [3], 0.5 µg/mL (≈ 1.35 µM); with Staphylococcus aureus [4], 0.5 µg/mL (≈ 1.35 µM); in the data set with Enterococcus faecalis [5], 256 µg/mL (≈ 690 µM); in the data set with Klebsiella pneumoniae it was 1 µg/mL (≈ 2.7 µM). For the same molecule, the MIC came out at 2 µg/mL (≈ 5.39 µM) in the data set with Escherichia coli [6]; 0.5 µg/mL (≈ 1.35 µM) in the data set on Escherichia coli [7]; 0.25 µg/mL (≈ 0.674 µM) in the data set with Pseudomonas aeruginosa [8]; 0.5 µg/mL (≈ 1.35 µM) in the data set with Pseudomonas aeruginosa [9]; 16 µg/mL (≈ 43.2 µM) with Acinetobacter baumannii.
